Experimental data: PubChem BioAssay (NCI)
Several values for one entry are separate records, joined by “and”; a condition that tells them apart may be missing. Identical values can stand only once.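 Briefly, cells in 96-well plates were exposed to five compound concentrations for 48 h, and endpoints were estimated by linear interpolation. GI50 = concentration required for 50% inhibition of growth. TGI marks complete inhibition of growth.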

How the values were obtained:
Test in all cases: growth of human tumour cells (NCI), 48 h
XF 498 CNS = test system: XF 498 CNS
HOP-18 NSCLC = test system: HOP-18 NSCLC
LXFL 529 NSCLC = test system: LXFL 529 NSCLC
M19-MEL melanoma = test system: M19-MEL melanoma
DLD-1 colon = test system: DLD-1 colon
KM20L2 colon = test system: KM20L2 colon
SNB-78 CNS = test system: SNB-78 CNS
DMS 114 small cell lung = test system: DMS 114 small cell lung
SN12K1 renal = test system: SN12K1 renal
DMS 273 small cell lung = test system: DMS 273 small cell lung
RXF-631 renal = test system: RXF-631 renal

Compound: C1=Nc2ccccc2Cn2nncc21
- TGI (XF 498 CNS): > 100 µM
- TGI (HOP-18 NSCLC): > 100 µM
- TGI (LXFL 529 NSCLC): > 100 µM
- TGI (M19-MEL melanoma): > 100 µM
- TGI (DLD-1 colon): > 100 µM
- TGI (KM20L2 colon): > 100 µM

Compound: COc1cc(/C=N/N=C(\N)NO)ccc1O
- TGI (SNB-78 CNS): > 100 µM
- TGI (LXFL 529 NSCLC): > 100 µM
- TGI (DLD-1 colon): > 100 µM
- TGI (DMS 114 small cell lung): > 100 µM

Compound: CCN(CC)CCCC(C)Nc1c2ccc(Cl)cc2nc2cc(Cl)ccc12 (stereo unspecified)
- TGI (SN12K1 renal): 8.47 µM
- TGI (SNB-78 CNS): 26.6 µM
- TGI (XF 498 CNS): 9.64 µM
- TGI (HOP-18 NSCLC): 18.1 µM
- TGI (M19-MEL melanoma): 9.97 µM
- TGI (DMS 273 small cell lung): 10.3 µM
- TGI (DLD-1 colon): 9.38 µM
- TGI (KM20L2 colon): 11.6 µM
- TGI (DMS 114 small cell lung): 16.6 µM

Compound: CC[C@@]1(O)C(=O)OCc2c1cc1n(c2=O)Cc2cc3c(CN(C)C)c(O)ccc3nc2-1
- TGI (SN12K1 renal): 1.19 µM
- GI50 (SNB-78 CNS): 0.0867 µM
- TGI (SNB-78 CNS): 2.49 µM
- GI50 (XF 498 CNS): 0.585 µM
- TGI (RXF-631 renal): 30.1 µM
- GI50 (HOP-18 NSCLC): 0.132 µM
- TGI (HOP-18 NSCLC): 89 µM
- GI50 (M19-MEL melanoma): 0.603 µM
- TGI (M19-MEL melanoma): 5.17 µM and 1.36 µM
- GI50 (DMS 273 small cell lung): 0.0372 µM
- TGI (DMS 273 small cell lung): 1.09 µM and 0.609 µM
- GI50 (KM20L2 colon): 2.22 µM
- TGI (KM20L2 colon): 8.27 µM
- GI50 (DMS 114 small cell lung): < 0.0351 µM
- TGI (DMS 114 small cell lung): 0.691 µM and 0.162 µM

Compound: CC1(CO)C(O)CCC2(C)C1C(O)CC1CC3CC12CCC3(O)CO (stereo unspecified)
- TGI (SN12K1 renal): > 225 µM
- TGI (SNB-78 CNS): > 225 µM
- TGI (XF 498 CNS): > 225 µM
- TGI (HOP-18 NSCLC): > 225 µM
- TGI (M19-MEL melanoma): > 153 µM
- TGI (DMS 273 small cell lung): > 199 µM
- TGI (DLD-1 colon): > 225 µM
- TGI (KM20L2 colon): > 225 µM
- TGI (DMS 114 small cell lung): > 225 µM

Compound: OC(c1ccccc1)C1CC2C=CC1C2 (stereo unspecified)
- TGI (SNB-78 CNS): > 100 µM
- TGI (XF 498 CNS): > 100 µM
- TGI (RXF-631 renal): > 100 µM
- TGI (LXFL 529 NSCLC): > 100 µM
- TGI (M19-MEL melanoma): > 100 µM
- TGI (DMS 273 small cell lung): > 100 µM
- TGI (DLD-1 colon): > 100 µM
- TGI (DMS 114 small cell lung): > 100 µM
